Assay results reported in patent US4889862A, “Freeze-dried pharmaceutical compositions of phenylquinoline carboxylic acids” (E. I. Du Pont de Nemours and Company, priority 1987, dated 1989).

Tests used:
L1210 leukemia = assay: In vivo antitumor activity against L1210 leukemia in mice (survival time); parameters: species or system CDF1 mice; L1210 murine leukemia; conditions: for Survival Time: % T/C (mean day of death treated/control × 100): intraperitoneal
Protocol: Then distilled water (4 ml) was added to the above to make 50 mg/kg solution. Serial two-fold dilutions were made in distilled water from the 50 mg/kg solution for the remaining three concentrations. An unformulated control solution was prepared by dissolving the title compound in distilled water and was used while it remained clear.
The test was carried out as follows. On day 0, CDF1 mice were injected with 1×10^5 L1210 murine leukemia cells intraperitoneally. On day 1 formulated and unformulated title compound were injected intraperitoneally and the injections continued, once daily through day 9. Mice were observed until death.

in vivo = assay: in vivo
Protocol: A comparative test was performed on the title compound to evaluate possible lethality differences between compositions described herein and compositions prepared by dissolving in water. […] Following compound administration, mortality was evaluated twice daily for 14 days.

## Cc1c(-c2ccc(-c3ccccc3F)cc2)nc2ccc(F)cc2c1C(=O)[O-].[Na+]
L1210 leukemia; 6.25 mg/kg/day × 9 days
  Survival Time: % T/C (mean day of death treated/control × 100): 156%
L1210 leukemia; 12.5 mg/kg/day × 9 days
  Survival Time: % T/C (mean day of death treated/control × 100): 167%
L1210 leukemia; 25 mg/kg/day × 9 days
  Survival Time: % T/C (mean day of death treated/control × 100): 169%
L1210 leukemia; 50 mg/kg/day × 9 days
  Survival Time: % T/C (mean day of death treated/control × 100): 89%
L1210 leukemia; formulated vs unformulated
  effect of sodium cholate and glycine on antitumor activity: no effect on the antitumor activity
In vivo; mouse, in vivo
  LD50 at 336 h: 156 mg/kg
In vivo; vehicle D.I. H2O, pH = 8.5, single parenteral dose, female mice
  Slope of the response curve: 1.18
